Test results as given in US20220340566A1, “BENZYL AMINE-CONTAINING 5,6-HETEROAROMATIC COMPOUNDS USEFUL AGAINST MYCOBACTERIAL INFECTION” (priority 2019, published 2022).
Where two headings read alike, the source gives them in different places.

How the values were obtained:
[1] = test system: Mycobacterium avium ATCC700898; experiment: Determination of IC85 against M. avium (resazurin fluorescence); format: cell-based; conditions: 37° C., 3 days incubation then resazurin, fluorescence one day later
[2] = Metabolic stability test in pooled human liver microsomes; format: in vitro ADME; conditions: human liver microsomes 0.5 mg protein/mL, 1 mmol/L NADPH, 37° C., 30 minutes
Procedure: Using a commercially available pooled human liver microsomes, a compound of the present invention was reacted for a constant time, a remaining rate was calculated by comparing a reacted sample and an unreacted sample, thereby, a degree of metabolism in liver was assessed.
A reaction was performed (oxidative reaction) at 37° C. for 0 minute or 30 minutes in the presence of 1 mmol/L NADPH in 0.2 mL of a buffer (50 mmol/L Tris-HCl pH 7.4, 150 mmol/L potassium chloride, 10 mmol/L magnesium chloride) containing 0.5 mg protein/mL of human liver microsomes. After the reaction, 50 μL of the reaction solution was added to 100 μL of a methanol/acetonitrile=1/1 (v/v), mixed and centrifuged at 3000 rpm for 15 minutes. The compound of the present invention in the supernatant was quantified by LC/MS/MS or solid phase extraction (SPE)/MS, and a remaining amount of the compound of the present invention after the reaction was calculated, letting a compound amount at 0 minute reaction time to be 100%.

[3] = Mycobacterium avium, ATCC700898, M. avium ATCC700898, CAMHB medium, read-out: IC85
[4] = M. avium ATCC700898, CAMHB medium

Row | Structure (SMILES) | IC85 [1, 3] | MS_h_% (remaining amount of compound after reaction, 0 minute = 100%) [2] | IC85 [1, 4]
1 | Cc1ccn2c(C(=O)NCc3ccc(C4CCN(c5ccc(OC(F)(F)F)cc5)CC4)c(F)c3)c(C)nc2c1 [Compound I-1-1] | 17 nM | 75% | 
2 | Cc1ccn2c(C(=O)NCc3ccc(N4CCN(c5ccc(OC(F)(F)F)cc5)[C@@H](C)C4)c(F)c3)c(C)nc2c1 [Compound I-1-2] | 21 nM | 86% | 
3 | CCc1nc2ccc(Cl)cn2c1C(=O)NCc1ccc(N2CCN(c3ccc(OC(F)(F)F)cc3)[C@@H](C)C2)c(F)c1 [Compound I-1-3] | 3 nM | 66% | 
4 | Cc1ccn2c(C(=O)NCc3ccc(C4CCN(c5ccc(OC(C)C)cc5)CC4)c(F)c3)c(C)nc2c1 [Compound I-1-4] | 100 nM | 88% | 
5 | Cc1ccn2c(C(=O)NCc3ccc(C4CCN(c5ccc(OCCF)cc5)CC4)c(F)c3)c(C)nc2c1 [Compound I-1-5] | 48 nM | 70% | 
6 | Cc1ccn2c(C(=O)NCc3ccc(C4CCN(c5ccc(OC(F)(F)F)cn5)CC4)c(C)c3)c(C)nc2c1 [Compound I-1-7] | 170 nM | 87% | 
7 | Cc1ccn2c(C(=O)NCc3ccc(C4CCN(c5ccc(OC(F)(F)F)cc5)CC4)cc3F)c(C)nc2c1 [Compound I-1-8] | 580 nM | 86% | 
8 | Cc1ccn2c(C(=O)NCc3ccc(C4CCN(c5ccc(OC(C)C)cc5)CC4)cc3F)c(C)nc2c1 [Compound I-1-9] | 940 nM | 82% | 
9 | CCc1nc2ccc(Cl)cn2c1C(=O)NCc1ccc(C2CCN(c3ccc(OC(F)(F)F)cc3)CC2)cc1F [Compound I-1-10] | 3.1 nM | 60% | 
10 | Cc1ccn2c(C(=O)NCc3ccc(C4CCN(c5ccc(OC(F)(F)F)cn5)CC4)cc3F)c(C)nc2c1 [Compound I-1-11] | 89 nM | 72% | 
11 | Cc1ccn2c(C(=O)NCc3ccc(N4CCN(c5ccc(OC(F)(F)F)cc5)[C@H](C)C4)c(F)c3)c(C)nc2c1 [Compound I-1-12] | 70 nM | 64% | 
12 | Cc1cc2nc(C)c(C(=O)NCc3ccc(C4CCN(c5ccc(OC(F)(F)F)cc5)CC4)c(F)c3)n2cc1Cl [Compound I-1-13] | 57 nM | 82% | 
13 | Cc1nc2cc(C(F)(F)F)ccn2c1C(=O)NCc1ccc(C2CCN(c3ccc(OC(F)(F)F)cc3)CC2)c(F)c1 [Compound I-1-14] | 760 nM | 79% | 
14 | Cc1ccn2c(C(=O)NCc3ccc(C4CCN(c5ccc(OC(F)(F)F)cc5)CC4)c(F)c3)c(C(F)(F)F)nc2c1 [Compound I-1-15] | 57 nM | 71% | 
15 | Cc1ccc2nc(C)c(C(=O)NCc3ccc(C4CCN(c5ccc(OC(F)(F)F)cc5)CC4)c(F)c3)n2c1 [Compound I-1-16] | 1.6 nM | 67% | 
16 | O=C(NCc1ccc(C2CCN(c3ccc(OC(F)(F)F)cc3)CC2)c(F)c1)c1c(C(F)(F)F)nc2ccc(Cl)cn12 [Compound I-1-17] |  | 63% | 13 nM
17 | Cc1nc2ccc(F)cn2c1C(=O)NCc1ccc(C2CCN(c3ccc(OC(F)(F)F)cc3)CC2)c(F)c1 [Compound I-1-18] | 11 nM | 85% | 
18 | Cc1ccn2c(C(=O)NCc3ccc(C4CCN(c5cccc(OC(F)(F)F)c5)CC4)c(F)c3)c(C)nc2c1 [Compound I-1-19] | 130 nM | 87% | 
19 | CCc1nc2ccc(Cl)cn2c1C(=O)NCc1ccc(C2CCN(c3ccc(OC(F)(F)F)cc3)CC2)c(F)c1 [Compound I-1-20] | 33 nM | 83% | 
20 | Cc1ccn2c(C(=O)NCc3ccc(C4CCN(c5ccc(OCC(F)(F)F)cc5)CC4)c(F)c3)c(C)nc2c1 [Compound I-1-21] | 38 nM | 89% | 
21 | Cc1ccn2c(C(=O)NCc3ccc(C4CCN(c5ccc(OC(F)(F)F)cc5F)CC4)c(F)c3)c(C)nc2c1 [Compound I-1-22] | 28 nM | 87% | 
22 | Cc1ccn2c(C(=O)NCc3ccc(N4CCN(c5ccc(OC(F)(F)F)cc5)[C@@H](C)C4)c(F)c3)c(C(F)(F)F)nc2c1 [Compound I-1-23] | 45 nM | 85% | 

Row | Structure (SMILES) | IC85 [1, 3] | MS_h_% (remaining amount of compound after reaction, 0 minute = 100%) [2] | IC85 [1, 4]
23 | C[C@H]1CN(c2ccc(CNC(=O)c3c(C(F)(F)F)nc4ccc(Cl)cn34)cc2F)CCN1c1ccc(OC(F)(F)F)cc1 [Compound I-1-24] |  | 62% | 32 nM
24 | Cc1ccc2nc(C)c(C(=O)NCc3ccc(N4CCN(c5ccc(OC(F)(F)F)cc5)[C@@H](C)C4)c(F)c3)n2c1 [Compound I-1-25] | 2.2 nM | 72% | 
25 | Cc1nc2ccc(F)cn2c1C(=O)NCc1ccc(N2CCN(c3ccc(OC(F)(F)F)cc3)[C@@H](C)C2)c(F)c1 [Compound I-1-26] | 15 nM | 93% | 
26 | Cc1cc2nc(C)c(C(=O)NCc3ccc(N4CCN(c5ccc(OC(F)(F)F)cc5)[C@@H](C)C4)c(F)c3)n2cc1Cl [Compound I-1-27] | 33 nM | 80% | 
27 | CCc1nc2ccc(Cl)cn2c1C(=O)NCc1ccc(N2CCN(c3ccc(OC(C)C)cc3)C(C)(C)C2)c(F)c1 [Compound I-1-28] | 12 nM | 94% | 
28 | C[C@H]1CN(c2ccc(CNC(=O)c3c(C(F)(F)F)nc4ccc(Cl)cn34)cc2F)CCN1c1ccc(OC(F)(F)F)cc1 [Compound I-1-29] |  | 89% | 2.7 nM
29 | O=C(NCc1ccc(C2CCN(c3ccc(OC(F)(F)F)cc3)CC2)c(F)c1)c1c(C(F)(F)F)nc2ccc(Cl)cn12 [Compound I-1-30] |  | 89% | 3.1 nM
30 | Cc1ccn2c(C(=O)NCc3ccc(N4CCN(c5ccc(OC(F)(F)F)cc5)C(C)(C)C4)c(F)c3)c(C)nc2c1 [Compound I-1-31] | 140 nM | 82% | 
31 | CCc1nc2ccc(Cl)cn2c1C(=O)NCc1ccc(N2CCN(c3ccc(OC(F)(F)F)cc3)C(C)(C)C2)c(F)c1 [Compound I-1-32] | 9.1 nM | 62% | 
32 | Cc1nc2ccc(F)cn2c1C(=O)NCc1ccc(N2CCN(c3ccc(OC(F)(F)F)cc3)C(C)(C)C2)c(F)c1 [Compound I-1-33] | 68 nM | 85% | 
33 | CCc1nc2ccc(F)cn2c1C(=O)NCc1ccc(N2CCN(c3ccc(OC(F)(F)F)cc3)[C@@H](C)C2)c(F)c1 [Compound I-1-34] | 8 nM | 65% | 
34 | CCc1nc2cc(Cl)ccn2c1C(=O)NCc1ccc(N2CCN(c3ccc(OC(F)(F)F)cc3)[C@@H](C)C2)c(F)c1 [Compound I-1-35] | 26 nM | 91% | 
35 | CCc1nc2ccc(C#N)cn2c1C(=O)NCc1ccc(N2CCN(c3ccc(OC(F)(F)F)cc3)[C@@H](C)C2)c(F)c1 [Compound I-1-36] | 110 nM | 79% | 
36 | Cc1nc2ccc(Cl)cn2c1C(=O)NCc1ccc(N2CCN(c3ccc(OC(F)(F)F)cc3)C[C@H]2C)c(F)c1 [Compound I-1-37] | 36 nM | 76% | 
37 | CCc1nc2cc(F)ccn2c1C(=O)NCc1ccc(N2CCN(c3ccc(OC(F)(F)F)cc3)[C@@H](C)C2)c(F)c1 [Compound I-1-38] | 1.3 nM | 90% | 
38 | CCc1nc2ccc(Cl)cn2c1C(=O)NCc1ccc(N2C[C@H](C)N(c3ccc(OC(F)(F)F)cc3)C[C@H]2C)c(F)c1 [Compound I-1-39] | 11 nM | 75% | 
39 | Cc1nc2ccc(Cl)cn2c1C(=O)NCc1ccc(N2C[C@H](C)N(c3ccc(OC(F)(F)F)cc3)C[C@H]2C)c(F)c1 [Compound I-1-40] | 22 nM | 89% | 
40 | Cc1ccn2c(C(=O)NCc3ccc(N4C[C@H](C)N(c5ccc(OC(F)(F)F)cc5)C[C@H]4C)c(F)c3)c(C)nc2c1 [Compound I-1-41] | 180 nM | 86% | 
41 | CCc1nc2ccc(Cl)cn2c1C(=O)NCc1ccc(N2CCN(c3ccc(OC(F)(F)F)cc3)[C@@H](CC)C2)c(F)c1 [Compound I-1-42] | 9 nM | 59% | 
42 | CCOc1ccc(N2CCN(c3ccc(CNC(=O)c4c(CC)nc5ccc(Cl)cn45)cc3F)C[C@@H]2C)cc1 [Compound I-1-44] | 11 nM | 69% | 
43 | CCc1nc2ccc(Cl)cn2c1C(=O)NCc1ccc(N2CCN(c3ccc(OCC(F)(F)F)nc3)[C@@H](C)C2)c(F)c1 [Compound I-1-45] | 11 nM | 64% | 
